{"source": "patent US20090013417A1", "about": "“Transgenic Animals for Assessing Drug Metabolism and Toxicity in Man” (IMPERIAL CANCER RESEARCH TECHNOLOGY LIMITED, priority 2004, published 2009)", "key": {"[1]": {"test": "blood midazolam concentrations after oral midazolam in wild-type, HRN and Ad-3A4/red virus-infected HRN mice", "conditions": "oral 2.5 mg/kg midazolam"}, "[2]": {"test_system": "Chinese Hamster Ovary (CHO) cell line transfected with human cytochrome P450 2D6 (CYP2D6)", "test": "metabolism of midazolam or bufuralol in CHO cells transfected with human CYP2D6, with or without Ad-3A4/red infection", "conditions": "CHO/2D6 cells uninfected or infected with control Ad-GFP; 10 μM, four hours"}}}
{"smiles": "Cc1ncc2n1-c1ccc(Cl)cc1C(c1ccccc1F)=NC2", "note": "[midazolam]", "values": [{"measurement": "peak midazolam concentration", "setting": "[1]; HRN mice infected with Ad-3A4/red virus (72 h before)", "value": 109, "unit": "ng/mL"}, {"measurement": "circulating midazolam concentration, peak value", "setting": "[1]; non-infected HRN mice", "value": 260, "unit": "ng/mL"}, {"measurement": "time circulating midazolam remained detectable", "setting": "[1]; non-infected HRN mice", "value": "> 6", "unit": "h"}, {"measurement": "circulating midazolam concentration, peak value", "setting": "[1]; wild-type mice", "value": 128, "unit": "ng/mL"}, {"measurement": "time until circulating midazolam became undetectable again", "setting": "[1]; wild-type mice", "value": "≤ 3", "unit": "h"}, {"measurement": "midazolam metabolism (1'-hydroxymidazolam formation)", "setting": "[2]", "value": "extremely slow"}]}
